How the values were obtained:
[1] = Encapsulation efficiency (RIBOGREEN kit); format: physicochemical; conditions: Luc mRNA-LNP 50:10:38.5:1.5
Description: For nanoparticle compositions including an RNA, a QUANT-IT™ RIBOGREENR®RNA assay (Invitrogen Corporation Carlsbad, Calif.) can be used to evaluate the encapsulation of an RNA by the nanoparticle composition. The samples were diluted to a concentration of approximately 5 μg/mL in a TE buffer solution (10 mM Tris-HCl, 1 mM EDTA, pH 7.5). 50 μL of the diluted samples are transferred to a polystyrene 96 well plate and either 50 μL of TE buffer or 50 μL of a 2% Triton X-100 solution is added to the wells. The plate is incubated at a temperature of 37° C. for 15 minutes. The RIBOGREENR reagent is diluted 1:100 in TE buffer and 100 μL of this solution is added to each well. The fluorescence intensity can be measured using a fluorescence plate reader (Wallac Victor 1420 Multilablel Counter; Perkin Elmer, Waltham, Mass.) at an excitation wavelength of, for example, about 480 nm and an emission wavelength of, for example, about 520 nm. The fluorescence values of the reagent blank are subtracted from that of each of the samples and the percentage of free RNA is determined by dividing the fluorescence intensity of the intact sample (without addition of Triton X-100) by the fluorescence value of the disrupted sample (caused by the addition of Triton X-100).
Encapsulation efficiency detection method: LNP content and encapsulation efficiency detection were carried out according to the RIBOGREEN kit.

cells = experiment: Cytotoxicity, CCK-8 cell viability; format: cell-based; conditions: 200 ng LNP, 24 h, CCK-8, vs cells blank
Description: Evaluation method of cytotoxicity: 200 ng of LNP samples were mixed with cells and incubated for 24 h, then the viability was detected using CCK-8 cell viability detection kit. 10 μl of CCK-8 detection reagent was added to the transfected cells and the OD value was detected using a microplate reader at a detection wavelength of 450 nm. The cell viability percentage is obtained by comparing the OD value with that of the cells blank.

C2C12 cells = experiment: In vitro cell Luc expression, C2C12; format: cell-based; conditions: 100 ng Luc mRNA-LNP, 24 h
Description: (§1) In vitro cell expression evaluation method: C2C12 cells, HepG2 cells, A20 cells were cultured, and 100,000 cells per well were plated on a 96-well plate. 100 ng of LNP samples were mixed with the cells and incubated for 24 hours (n=3), and then the expression was detected using luciferase quantitative kit 24 h after administration.

A20 cells = experiment: In vitro cell Luc expression, A20; format: cell-based; conditions: 100 ng Luc mRNA-LNP, 24 h
Description: as §1

Balb/C mice [2] = experiment: In vivo Luc expression after intramuscular injection, compared with MC3 (Example 4); conditions: 5 μg Luc mRNA-LNP (DSPC) intramuscularly, Balb/C mice n=3, 6 hours; for in vivo Luc expressions (FIG. 2): compared with MC3
Description: The mRNA nanoparticle compositions of SW-II-118, SW-120, and SW-121 were prepared according to the method provided in Example 3. The ratios of the lipids were 50:10:38.5:1.5 mol % for cationic lipid: DSPC: cholesterol: PEG-DMG. The cationic lipid MC3 was a current standard in the art. Accordingly, the standard MC3 formulation including 50 mol % MC3, 10 mol % DSPC, 38.5 mol % cholesterol, and 1.5 mol % PEG-DMG was used as a reference for this study.
5 μg of Luc mRNA-LNP of MC3, SW-II-118, SW-II-120, or SW-II-121 was intramuscularly injected into Balb/C mice (n=3). 6 hours after the administration, the mice were injected intraperitoneally with 0.15 mg/kg […] substrate. 15 minutes after the injection of the substrate, the fluorescence signal intensity was tested under a small animal in vivo imaging instrument.

Balb/C mice [3] = experiment: Luc expression in injection site and liver site after intramuscular administration (Example 5); format: in vivo; conditions: 5 μg Luc mRNA-LNP (DSPC) intramuscularly, Balb/C mice n=3, 6 h
Description: Further bioluminescence studies were performed to investigate the delivery efficiency of nanoparticle compositions including various lipid compounds according to the present invention. The formulations containing reference cationic lipid M62, M63, M118, and M119 (corresponding to Compound 62, 63, 118, and 119 in PCT/US2018/022717 (WO2018/170306), respectively) were evaluated for comparison. Nanoparticle compositions including DSPC as an optimized phospholipid, cholesterol as a structural lipid, PEG-DMG as a PEG lipid, an RNA, and a compound above mentioned were prepared according to or via methods similar to those described in Examples 1 and 2. The ratios of the lipids were 50:10:38.5:1.5 mol % for the lipid of the present invention: DSPC: cholesterol: PEG-DMG. 5 μg of LNP solution containing luciferase mRNA was administered intramuscularly to Balb/C mice (n=3). 6 hours after administration, mice were injected intraperitoneally with 0.15 mg/kg of D-luciferin substrate. Within 15 minutes after the injection of the substrate, the fluorescence signal intensity in injection site and liver site were tested under a small animal in vivo imaging instrument. Tables 3-4 summarize the fluorescence signal intensity of the nanoparticle compositions including present invention lipids and the reference compounds in injection site and liver site.

SMILES: CCCCCCCCC(CCCCCCCC)OC(=O)CCCCCCCN(CCO)CCCCCCCC(=O)OCCc1ccc(CCCC)cc1 [SW-II-118]
- Encapsulation Efficiency (EE, %) ([1]; phospholipid DAPC): 86.4%
- Encapsulation Efficiency (EE, %) ([1]; phospholipid DMPE): 86.2%
- Encapsulation Efficiency (EE, %) ([1]; phospholipid DOPE): 87.5%
- Encapsulation Efficiency (EE, %) ([1]; phospholipid DPPC): 83.4%
- Encapsulation Efficiency (EE, %) ([1]; phospholipid DSPC): 76.0%
- Encapsulation Efficiency (EE, %) ([1]; phospholipid DSPE): 81.0%
- Viability (%) (cells; phospholipid DAPC): 104.0%
- Viability (%) (cells; phospholipid DMPE): 110.8%
- Viability (%) (cells; phospholipid DOPE): 98.7%
- Viability (%) (cells; phospholipid DPPC): 105.4%
- Viability (%) (cells; phospholipid DPPE): 162.7%
- Viability (%) (cells; phospholipid DSPC): 103.0%
- Viability (%) (cells; phospholipid DSPE): 113.9%
- C2C12 cell, in vitro expression (C2C12 cells; phospholipid DAPC): 32703.5
- C2C12 cell, in vitro expression (C2C12 cells; phospholipid DMPE): 218015.5
- C2C12 cell, in vitro expression (C2C12 cells; phospholipid DOPE): 300431.5
- C2C12 cell, in vitro expression (C2C12 cells; phospholipid DPPC): 260091
- C2C12 cell, in vitro expression (C2C12 cells; phospholipid DPPE): 1254.5
- C2C12 cell, in vitro expression (C2C12 cells; phospholipid DSPC): 80658
- C2C12 cell, in vitro expression (C2C12 cells; phospholipid DSPE): 46290.5
- A20 cell, in vitro expression (A20 cells; phospholipid DAPC): 5337
- A20 cell, in vitro expression (A20 cells; phospholipid DMPE): 34438
- A20 cell, in vitro expression (A20 cells; phospholipid DOPE): 2295
- A20 cell, in vitro expression (A20 cells; phospholipid DPPC): 12326.5
- A20 cell, in vitro expression (A20 cells; phospholipid DPPE): 1627.5
- A20 cell, in vitro expression (A20 cells; phospholipid DSPC): 9068
- A20 cell, in vitro expression (A20 cells; phospholipid DSPE): 3748
- Luc expression in liver site compared with injection site (FIG. 2) (Balb/C mice [2]): higher than that in injection site
- in vivo Luc expressions (FIG. 2) (Balb/C mice [2]): higher than that of MC3
- Luc expression in injection site, I.M. injection site, 6 h (ratio relative to SW-II-134-3 set as 1) (Balb/C mice [3]): 1.450
- Luc expression in liver site, Liver site upon I.M., 6 h (ratio relative to SW-II-137-1 set as 1) (Balb/C mice [3]): 2.234

SMILES: CCCCCCCCC(CCCCCCCC)OC(=O)CCCCCCCN(CCO)CCCCCCCC(=O)OCCc1ccc(CCCCCC)cc1 [SW-II-120]
- Encapsulation Efficiency (EE, %) ([1]; phospholipid DAPC): 84.3%
- Encapsulation Efficiency (EE, %) ([1]; phospholipid DMPE): 86.2%
- Encapsulation Efficiency (EE, %) ([1]; phospholipid DOPE): 90.9%
- Encapsulation Efficiency (EE, %) ([1]; phospholipid DPPC): 84.9%
- Encapsulation Efficiency (EE, %) ([1]; phospholipid DPPE): 64.7%
- Encapsulation Efficiency (EE, %) ([1]; phospholipid DSPC): 85.3%
- Viability (%) (cells; phospholipid DAPC): 99.0%
- Viability (%) (cells; phospholipid DMPE): 87.9%
- Viability (%) (cells; phospholipid DOPE): 115.0%
- Viability (%) (cells; phospholipid DPPC): 102.9%
- Viability (%) (cells; phospholipid DPPE): 107.1%
- Viability (%) (cells; phospholipid DSPC): 102.3%
- Viability (%) (cells; phospholipid DSPE): 97.9%
- C2C12 cell, in vitro expression (C2C12 cells; phospholipid DAPC): 17847.5
- C2C12 cell, in vitro expression (C2C12 cells; phospholipid DMPE): 228078.5
- C2C12 cell, in vitro expression (C2C12 cells; phospholipid DOPE): 815187.5
- C2C12 cell, in vitro expression (C2C12 cells; phospholipid DPPC): 147377.5
- C2C12 cell, in vitro expression (C2C12 cells; phospholipid DPPE): 471290.5
- C2C12 cell, in vitro expression (C2C12 cells; phospholipid DSPC): 44819
- C2C12 cell, in vitro expression (C2C12 cells; phospholipid DSPE): 51132.5
- A20 cell, in vitro expression (A20 cells; phospholipid DAPC): 1764
- A20 cell, in vitro expression (A20 cells; phospholipid DMPE): 37055.5
- A20 cell, in vitro expression (A20 cells; phospholipid DOPE): 3578
- A20 cell, in vitro expression (A20 cells; phospholipid DPPC): 7015
- A20 cell, in vitro expression (A20 cells; phospholipid DPPE): 54823
- A20 cell, in vitro expression (A20 cells; phospholipid DSPC): 8101.5
- A20 cell, in vitro expression (A20 cells; phospholipid DSPE): 1599
- Luc expression in liver site compared with injection site (FIG. 2) (Balb/C mice [2]): higher than that in injection site
- in vivo Luc expressions (FIG. 2) (Balb/C mice [2]): higher than that of MC3
- Luc expression in injection site, I.M. injection site, 6 h (ratio relative to SW-II-134-3 set as 1) (Balb/C mice [3]): 1.064
- Luc expression in liver site, Liver site upon I.M., 6 h (ratio relative to SW-II-137-1 set as 1) (Balb/C mice [3]): 1.318

SMILES: CCCCCCCCC(CCCCCCCC)OC(=O)CCCCCCCN(CCO)CCCCCCCC(=O)OCCc1ccc(CCCCCCC)cc1 [SW-II-121]
- Encapsulation Efficiency (EE, %) ([1]; phospholipid DAPC): 76.6%
- Encapsulation Efficiency (EE, %) ([1]; phospholipid DMPE): 70.9%
- Encapsulation Efficiency (EE, %) ([1]; phospholipid DOPE): 81.5%
- Encapsulation Efficiency (EE, %) ([1]; phospholipid DPPC): 86.7%
- Encapsulation Efficiency (EE, %) ([1]; phospholipid DPPE): 84.0%
- Encapsulation Efficiency (EE, %) ([1]; phospholipid DSPC): 86.0%
- Encapsulation Efficiency (EE, %) ([1]; phospholipid DSPE): 68.5%
- Viability (%) (cells; phospholipid DAPC): 111.1%
- Viability (%) (cells; phospholipid DMPE): 108.5%
- Viability (%) (cells; phospholipid DOPE): 107.5%
- Viability (%) (cells; phospholipid DPPC): 109.64%
- Viability (%) (cells; phospholipid DPPE): 108.0%
- Viability (%) (cells; phospholipid DSPC): 123.3%
- Viability (%) (cells; phospholipid DSPE): 137.0%
- C2C12 cell, in vitro expression (C2C12 cells; phospholipid DAPC): 24183
- C2C12 cell, in vitro expression (C2C12 cells; phospholipid DMPE): 219379.5
- C2C12 cell, in vitro expression (C2C12 cells; phospholipid DOPE): 1003834.5
- C2C12 cell, in vitro expression (C2C12 cells; phospholipid DPPC): 93988
- C2C12 cell, in vitro expression (C2C12 cells; phospholipid DPPE): 246921
- C2C12 cell, in vitro expression (C2C12 cells; phospholipid DSPC): 93333
- C2C12 cell, in vitro expression (C2C12 cells; phospholipid DSPE): 41556.5
- A20 cell, in vitro expression (A20 cells; phospholipid DAPC): 1744.5
- A20 cell, in vitro expression (A20 cells; phospholipid DMPE): 9110.5
- A20 cell, in vitro expression (A20 cells; phospholipid DOPE): 4244.5
- A20 cell, in vitro expression (A20 cells; phospholipid DPPC): 9098
- A20 cell, in vitro expression (A20 cells; phospholipid DPPE): 27832
- A20 cell, in vitro expression (A20 cells; phospholipid DSPC): 8006.5
- A20 cell, in vitro expression (A20 cells; phospholipid DSPE): 508.5
- Luc expression in liver site compared with injection site (FIG. 2) (Balb/C mice [2]): higher than that in injection site
- in vivo Luc expressions (FIG. 2) (Balb/C mice [2]): higher than that of MC3
- Luc expression in injection site, I.M. injection site, 6 h (ratio relative to SW-II-134-3 set as 1) (Balb/C mice [3]): 1.440
- Luc expression in liver site, Liver site upon I.M., 6 h (ratio relative to SW-II-137-1 set as 1) (Balb/C mice [3]): 2.150
